Publication PMC6054100, “Exploring the chemical space of the lysine-binding pocket of the first kringle domain of hepatocyte growth factor/scatter factor (HGF/SF) yields a new class of inhibitors of HGF/SF-MET binding” (Chemical Science, 2015)

Tests used:
[1] = target: T1, NK1 (Homo sapiens, UniProt P14210); assay: SPR steady-state binding to immobilized NK1 (Biacore T100); design: made in house; host or cells: Pichia pastoris
Experimental: Binding constants of piperazine-like compounds and fragments were determined using a Biacore T100 instrument. NK1 was immobilized on a CM5 chip by amine coupling to a density of 6000 RU. Compounds were stored as 100 mM stock solutions in water and serial dilutions were prepared in the running buffer (PBS pH 7.4, 0.05% Tween 20). The compound solutions were injected onto the surface of the chip at a flow rate of 30 μL min^–1, contact time was 1 min and dissociation time 1 min. Sensorgrams were analysed using the Biacore T100 evaluation software and the binding constants determined.

[2] = target: T1, NK1; assay: 1H-15N TROSY-HSQC NMR chemical shift titration of 15N-labelled NK1; type: binding; design: made in house; host or cells: Pichia pastoris; conditions: steady-state binding constants; piperazine-like compounds; 0.18 mM NK1, pH 7.2, 310 K; read-out: KD in NMR
Experimental: Ligand screening was performed by monitoring the chemical shift variations in ^1H-^15N TROSY-HSQC NMR spectra of the uniformly [^15N]-labelled NK1 protein (Fragai et al. 2015, in prep.) upon the addition of increasing concentrations of the investigated compounds.[43]–[45] The experiments were performed using 0.18 mM protein samples in 25 mM Tris, 100 mM NaCl and 0.01% sodium azide, at pH 7.2 with 10% D2O. The spectra were recorded at 310 K on a Bruker AVANCE 900 MHz spectrometer equipped with a TXI cryo-probe. Sample solutions were prepared from 1 M or 100 mM DMSO stock solutions of the ligands. The dissociation constant values (KD) were calculated by plotting the weighted average ^1H and ^15N chemical shifts of the residues experiencing significant variations as a function of ligand concentration added during the titration and considering the one site binding model.[46]

[3] = tested on: MET downstream signalling (Erk 1/2, Akt) in Vero cells; assay: MET, Erk1/2 and Akt phosphorylation assay in NK1-stimulated Vero cells (Western blot); type: cell-based; conditions: Vero cells stimulated with NK1; compound 100 mM (lanes 4)
Experimental: We evaluated the effect of piperazine-like compounds and MB605 on Vero cells by assessing MET, Erk 1/2 and Akt phosphorylation in response to stimulation using […] NK1. MB605 was dissolved in DMSO, which limited the range of concentrations tested to ≤1 mM in order to avoid solvent effects on cell function/viability. The water-soluble piperazine-like compounds, in contrast, could be tested at concentrations up to 100 mM.
Fig. 6 Biological activity of the piperazine-like compounds and MB605. (a–e) Vero cells expressing the receptor endogenously on their cell surface were stimulated with HGF/SF or NK1 and phosphorylation of MET and downstream targets Akt and Erk1/2 was analysed. Piperazine-like compounds HEPES (a), (H)EPPS (b), MES (c), MOPS (d) and CAPS (e) were tested at 100 mM (lanes 4), 10 mM (lanes 5), 1 mM (lanes 6) and 100 μM (lanes 7) concentration in the presence of 1 nM NK1. To control for activating or inhibiting effects of the compounds independently of MET, piperazine-like compounds were tested on cells at 100 mM without stimulation by NK1 (lanes 3). Biological activity of MB605 (f) was investigated at 1 mM (lane 5), 100 μM (lane 6) and 10 μM (lane 7) in the presence of a constant concentration of DMSO (0.1%). A solvent control (0.1% DMSO, lane 3) was included in order to account for the effect of DMSO on the cells. A positive control (1 nM NK1 in the presence of 0.1% DMSO) is shown in lane 4. In all experiments, un-stimulated cells served as negative control (lanes 1) while cells stimulated with 1 nM NK1 served as positive control (lanes 2).
The ability of MB605 and the piperazine-like compounds to inhibit MET, Erk and Akt phosphorylation in the presence of NK1 was tested using mammalian Vero cells as described by Ferraris et al.[47] and further details are given in the ESI ^† section of the manuscript. […]
For MET, Erk1/2 and Akt phosphorylation assays, Vero cells were seeded at 2.1 × 10^5 cells we ll -1 (2 ml we ll -1) in 6-well plates and grown to 90% conf luence in 10% FCS/DMEM media and then switched to serum-free medium (to avoid any growth f actors present in the serum).
24 hours post starvation the cells were stimulated for 5 min at 37°C with each individual piperazine -like compounds as well as with NK1 (1 nM) pre-incubated with different concentrations of the piperazine- like compounds (100 mM, 10 mM, 1 mM and 100 μM) or MB605 (1 mM, 100 μM and 10 μM). Stimulations with either 0. 1% DMS O or 1 nM of NK1 […]
solution were used as a negative and a positive control, respectively. The cells were then washed in PBS buffer, lysed on ice f or 30 min and frozen at -80 °C until further analysis. For

[4] = target: T2, lysine-binding pocket of the kringle domain of NK1 (Homo sapiens, UniProt P14210); assay: Soaking into NK1 apo crystals, X-ray crystallography; conditions: soaked into NK1 apo crystals
T2 construct: made in house; host or cells: Pichia pastoris
T2 sequence (P14210 32-210 isoform P14210-6 limits assumed): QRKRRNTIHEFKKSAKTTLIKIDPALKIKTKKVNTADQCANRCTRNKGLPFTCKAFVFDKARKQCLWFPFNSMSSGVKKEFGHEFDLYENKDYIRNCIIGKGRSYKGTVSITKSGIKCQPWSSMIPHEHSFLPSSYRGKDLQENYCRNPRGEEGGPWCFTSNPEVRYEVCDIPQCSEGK
Experimental: Next, three classes of piperazine-like sulphonated compounds containing piperazine ((H)EPPS and PIPES), morpholine (MES and MOPS), or cyclohexane (CHES and CAPS) rings were studied for their binding to NK1 (Table 1), alongside another five sulphonated compounds selected from a chemical fragment library (Table 2).
NK1 buffered in 150 mM NaCl, 50 mM Tris, pH 7.5 (apo-NK1 and all soaking experiments) was concentrated to ∼20 mg mL^–1 using a Vivaspin device with a 10 kDa cut-off membrane (Sartorius Biolab). Crystallisation was carried out in Linbro plates by the vapour diffusion hanging drop technique using a protein : precipitant ratio of 1 : 1 at 20 °C. Previously NK1 has been crystallised in 18% PEG 4000, 200 mM sodium acetate and 150 mM Tris pH 8.5 as precipitant.[19] Here final crystallisation conditions (19% PEG 4000, 200 mM sodium acetate and 150 mM Tris pH 7.5) were optimised around those to achieve high-resolution apo structure. Details of compound soaking, X-ray data collection and structure determination are given in the ESI ^† section of the manuscript. […]
For this, 1 M stock solutions were prepared in DMSO (fragments) or water (piperazine- like compounds) and the pH adjusted to a value within their buffering range with either HCl or NaOH. The seven piperazine- like compounds and their respective pH are: HEPES (pH 7.6), (H)EPPS (pH 7.4), PIPES (pH 7.0), MES (pH 5.8), MOPS (pH 7.2), CHES (pH 8.6) and CAPS (pH 9.7). Secondary stocks of the compounds at 50 mM were prepared in the […]
respective mother liquor and soaked for up to 48 hours.
MB605 was solubilised in 50% DMSO at 20 mM concentration (1% f inal DMSO concentration in the drop) in order to minimize adverse effects of DMSO on the protein crystal. 25% ethylene glycol was used as the cryoprotective agent.
X-ray data collection and processing
X-ray datasets were collected either at the European Synchrotron Radiation Facility (ESRF, Grenoble, France), the Diamond Light Source (DLS, Oxford, UK) or in-house using the X8 PROTEUM (Bruker AXS) at the Department of Biochemistry, University of Cambridge.
Datasets of at least 180° were collected. Raw data collected at synchrotrons were integrated, merged, scaled and reduced using DENZO and […].2 Raw data […]
collected in- house were integrated, merged, scaled and reduced using the PROTEUM 2 software package .3 The CCP4 suite of crystallographic programs (Collaborative

[5] = target: T1, NK1; assay: SPR fragment library screening against NK1; type: binding; design: made in house; host or cells: Pichia pastoris; conditions: for Ranking order: based on fragment screening, rank among the 71 NK1 hits (ESI Tables S3-S7); for SPR response: normalised relative value against NK1
Experimental: Supplementary Materials and Methods
Fragment library screening and data analysis
Met567 (soluble truncated f ragment of the MET ectodomain, residues 25- 567), NK1 and t he SPH domain were immobilized on CM5 chips by amine coupling. NK1 was diluted into 10 m M phosphate pH 7.0 and the SPH domain into 10 mM acetate pH 5.5 to a final concentration of 2.5 μM and 1 μM, respectively, for coupling. The immobilization wizard within the Biacore T100 software was set to “aim for immobiliz ed level” of 8000 RU to achieve complete saturation of the chip surface.
W ith minor deviations, the procedure and conditions outlined below were used f or a ll screening s of an in-house fragment library of 1338 members against individual target proteins. The running buffer was PBS pH 7.4, 0.05% Tween 20, 0.25% DMSO (1% DMSO for Met567). Fragments were stored as 100 mM stock solutions in DMSO. Prior to screening, fragment samples were diluted to 500 μM (1 mM f or Met567) in running buffer.
Screening was performed in 96- we ll plates at a flow rate of 30 μl min-1 with 1 min sample injection f ollowed by dissociation f or 1 min and surf ace regeneration using 1 M NaCl f or 30 […]
post-regeneration baseline exceeded the pre- sample baseline by more than 10 RU, a second regeneration cycle with 50% ethylene glycol was used. In order to be able to correct for small variations in DMSO concentration between samples, eight solvent samples ranging from 0.012 to 1.5% DMSO were injected every 40th cycle. To monitor the binding capacity of the NK1, SPH and Met567 surfaces throughout the screening, injections of 500 μM HEPES (NK1), 0.25 μM Met567 (SPH) and 0.2 μM NK1 and 1% DMSO (Met567) were carried out every 40th cycle. The flow cell temperature was 25°C. NK1 and the SPH domain were immobilized on the same chip (channels 2 and 3 respectively) and were theref ore screened in parallel. Met567 was screened separately and results are published in an accompanying paper (W in t er et al. 2015, in revision).
For data analysis, fir st, all responses were reference and solvent corrected. 1 Next, equilibrium binding for every fragment was determined and hits established by applying several filters: sensorgram shape, upper and lower threshold. Typical sensorgrams from fragment screening show “square curves” in SPR due to the fast on and off rates and fragments not showing this response were discarded from further analysis. Binding levels are represented as response units (RU) but the SPR signal is a convolution of multiple parameters including target coupling density, target -binding activity, target molecular weight and molecular weight of each injected fragment. To be able to identif y hits accurately and to be able to compare responses between different plates and targets, data were normalised against these factors. First the theoretical maximum response for each fragment was calculated using equation 1:
RRmmm = CCCCCCCC ddCdCdd× MMffmCmdCd (Equation 1)
This RUmax value diff ers for each protein target because it depends on the molecular weight of the protein and the amount of protein immobilized on the chip (coupling density). The RUmax was then used to calculate the normalised relative SPR response:
NNNNNNNNNN NNNNr NrN SSR NNNrNrNN = RRcppppcppc× 100% (Equation 2) […]
fragment should cause upon binding. 100% response would be 1:1 binding wit h levels above 100% implying over-stoichiometric binding. […]
Fragment library screening to identify small molecule binders

[6] = steady-state binding constants, piperazine-like compounds, immobilized NK1, PBS pH 7.4, read-out: KD in SPR
[7] = fragments 500 μM (ESI Tables S3-S7)
[8] = steady-state binding constant from SPR (ESI Tables S3-S7), read-out: KD
[9] = initial fragment screening, fragments 500 μM (Table 3)
[10] = steady-state binding constant from SPR, fragment hits (Table 3, text), read-out: KD

T1 sequence (P14210 32-210 isoform P14210-6 limits assumed): as above

| Compound | Ranking order [5] | SPR response [5, 7] [%] | Kd [1, 8] [mM] | further results |
| --- | --- | --- | --- | --- |
| O=S(=O)(O)CCCN1CCN(CCO)CC1 [(H)EPPS] | – | – | – | Kd [1, 6]: 7 ± 1 mM; Kd [2]: 4.4 ± 1.8 mM; Inhibition of phosphorylation of Erk 1/2 and Akt (S473) [3]: Inhibition of phosphorylation |
| O=S(=O)(O)CCN1CCOCC1 [MES] | – | – | – | binding in the lysine-binding pocket (crystal structure) [4]: bind the lysine-binding pocket of NK1; Kd [1, 6]: 24.3 ± 3.1 mM; Kd [2]: 13.4 ± 5.7 mM; Inhibition of phosphorylation of Erk 1/2 and Akt (S473) [3]: Inhibition of phosphorylation |
| O=S(=O)(O)CCNC1CCCCC1 [CHES] | – | – | – | binding in the lysine-binding pocket (crystal structure) [4]: bind the lysine-binding pocket of NK1; Kd [1, 6]: 30.2 ± 3.1 mM; Kd [2]: 15.7 ± 4.5 mM |
| O=S(=O)(O)CCCO [2FA, 3-Hydroxypropane-1-sulphonic acid] | – | – | – | binding in the lysine-binding pocket (crystal structure) [4]: bound in the lysine-binding pocket |
| O=S(=O)(O)CCN1CCN(CCS(=O)(=O)O)CC1 [PIPES, reference compound] | – | – | – | Kd [1, 6]: 26.6 ± 0.6 mM; Kd [2]: 45.9 ± 4.7 mM |
| Cc1cccc(CO)n1 [MB389] | 23 | 72 | 4.32 | – |
| Cc1nc(C(N)=S)cs1 [MB1252] | 10 | 101 | 5.2 | – |
| NC(=S)N1CCOCC1 [MB1082] | 43 | 53 | – | SPR response [5, 9]: 53%; Kd [1, 10]: 0.37 ± 0.04 mM |
| Cc1cc(Cl)ccc1C(=O)O [MB1318] | 33 | 61 | – | SPR response [5, 9]: 61%; Kd [1, 10]: 0.36 ± 0.04 mM |
| Nc1ncccn1 [CA023] | 46 | 52 | – | SPR response [5, 9]: 52%; Kd [1, 10]: 0.77 ± 0.06 mM |
| CC(=O)Nc1ccccc1F [MB1267] | 16 | 90 | 1.6 | – |
| Nc1ccncc1 [MB404] | 5 | 118 | 2.8 | – |
| Cc1ccc(C#N)c(=O)[nH]1 [MB1260] | 8 | 105 | 5.6 | – |
| N#Cc1ccsc1N [MB915] | 24 | 71 | 1.6 | – |
| Cc1ccsc1CN [MB1237] | 4 | 118 | 4.2 | – |
| Cc1nc(-c2ccc(C#N)cc2)cs1 [MB1236] | 19 | 83 | 1.2 | – |
